Source: publication PMC10447463, “Data-mining unveils structure–property–activity correlation of viral infectivity enhancing self-assembling peptides” (Nature Communications, 2023)
Like-named read-outs stand apart in the source and are kept apart here.

Legend:
[1] = Zeta-potential measurement; type: physicochemical; details: for Zeta pot. / mV: 1 mg/mL in PBS pH 7.4 from 10 mg/mL DMSO stock, 1 d RT, 60 µL diluted in 600 µL 1 mM KCl, Zetasizer Nano ZS, Smoluchowski, mean of triplicate; for Zeta-Potential / mV: Figure 6C; for Zeta-pot. / mV: zeta potential of peptide, Fig S15 source data
Method in brief: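 Aggregates: 1 mg/mL peptide, PBS pH 7.4, 1 d RT; dilute in KCl (1 mM, aq); measure mobility → zeta via Smoluchowski.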

[2] = Turbidity, derived count rate of scattered light; type: physicochemical; details: for Count Rate / kcps: derived count rate of scattered light at 633 nm, 173°, from zeta-potential measurement, 0.1 mg/mL in 1 mM KCl after 1 d at 1 mg/mL in PBS, turbidity / microscopic aggregation, mean of triplicate; for Log Count Rate: log of derived count rate
Method in brief: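 Samples: 1 mg/mL in PBS pH 7.4 (from DMSO), 1 d at RT, then diluted in 1 mM KCl immediately before measurement. Triplicates, two independent runs averaged.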

[3] = test system: HIV-1 infection of TZM-bl cells; experiment: HIV-1 infectivity enhancement assay, β-galactosidase luminescence; type: cell-based
[4] = log10 of derived count rate of scattered light, Figure 6C
[5] = logarithm of count rate in kcps
[6] = HIV-1 infection relative to EF-C; Fig 23 plot, panels A and B; mean of 3 values
[7] = HIV-1 infection relative to EF-C; Fig 23 plot, single data point, replicate 1
[8] = HIV-1 infection relative to EF-C; Fig 23 plot, single data point, replicate 2
[9] = HIV-1 infection relative to EF-C; Fig 23 plot, single data point, replicate 3
[10] = log10 of infection relative to EF-C, Figure 6C
[11] = n-fold infection vs virus only, relative to that of EF-C, 1.3 µM peptide
[12] = derived count rate of scattered light
[13] = derived count rate of scattered light, mean, std deviation in separate column
[14] = Feb2021; figures match the 1.3 µM column
[15] = Feb2021; infectivity relative to virus only
[16] = Feb2021; log10 of infectivity relative to EF-C
[17] = Feb2021; n-fold infectivity relative to EF-C
[18] = Feb2021 run; infectivity n-fold relative to virus alone
[19] = Feb2021 run; log10 of infectivity relative to EF-C
[20] = Feb2021 run; n-fold infectivity relative to EF-C
[21] = infectivity class (low / medium / high) of each library peptide; main list in c1-c6, same classes repeated in sub-lists of sequences containing the hydrophobicity/charge patterns P+,H0,P+,H0,P0,H0,P0; P+,H0,P0,H0,P0,H0,P0; P+,H0,P0,H0
[22] = log10 of HIV-1 infection of TZM-bl cells relative to EF-C; Fig S15 source data; asymmetric std dev errors

Row | Substance | Zeta-Potential / mV ([1]; mean) | Count Rate / kcps [2] | Log10 Count Rate [2, 4] | Log10 Count Rate [2, 5] | Log10 Infection Rel EF-C [3, 10] | Inf. rel. EF-C [3, 11] | Zeta Pot. / mV [1] | Zeta category ( +1 = if > 4 mV;-1 = if < -4 mV; 0 = -4mV to 4 mV) [1] | Zeta Pot. / mV ([1]; mean, Std in separate column) | Zeta-pot. / mV [1] | Zeta Count Rate Category ([2]; category 1 / 0, no key given) | Zeta Count Rate / kcps [2, 12] | Zeta Count Rate / kcps [2, 13] | Absolute Infectivity / RLU /s (Feb2021) [3, 14] | n-fold to virus (Feb2021) [3, 15] | Log10 of Rel to EFC (Feb2021) [3, 16] | Rel-to EFC (Feb-2021) [3, 17] | n-fold to virus (Feb2021) [3, 18] | infectivity [3, 21] | Log10 Inf. rel. to EF-C [3, 22] | also measured
1 | RVHLGLG | -6.01 mV | 28.33 kcps | 1.4523 | 1.4523 | -1.686 | 0.02 |  |  |  |  |  |  |  |  |  |  |  |  |  |  | Zeta pot. / mV [1]: -6.01 mV; Inf. rel. EF-C [3, 6]: 0.0206; Inf. rel. EF-C [3, 7]: 0.01527; Inf. rel. EF-C [3, 8]: 0.01985; Inf. rel. EF-C [3, 9]: 0.02667
2 | KFQFNMW | 8.763 mV | 331.6 kcps | 2.521 | 2.521 | -0.7437 | 0.18 |  |  |  |  |  |  |  |  |  |  |  |  |  |  | 
3 | KIKIQIW [TM69] |  |  |  |  |  |  | 12.5 mV | 1 (+1 = if > 4 mV) | 12.5 mV | 12.5 mV | 1 | 144.9 kcps | 144.9 kcps | 4280 RLU /s | 5.89 | -0.8533 | 0.1402 | 5.89 | medium | -0.8533 | Log10 of Rel to EFC (Feb2021) [3, 19]: -0.8533; Rel-to EFC (Feb-2021) [3, 20]: 0.1402
4 | KFKFQFN [BL7] |  |  |  |  |  |  |  | 1 (+1 = if > 4 mV) | 12.7 mV | 12.7 mV |  |  | 50.7 kcps |  |  |  |  | 0.757 | low | -1.744 | Log10 of Rel to EFC (Feb2021) [3, 19]: -1.744; Rel-to EFC (Feb-2021) [3, 20]: 0.01802
5 | KLKLTLT | 1.713 mV | 198.5 kcps | 2.298 | 2.298 | -1.415 | 0.04 |  |  |  |  |  |  |  |  |  |  |  |  |  |  | Zeta pot. / mV [1]: 1.713 mV; Inf. rel. EF-C [3, 6]: 0.03847; Inf. rel. EF-C [3, 7]: 0.0783; Inf. rel. EF-C [3, 8]: 0.01816; Inf. rel. EF-C [3, 9]: 0.01895
6 | KIKIQIN [JGB3] |  |  |  |  |  |  |  | 0 (0 = -4mV to 4 mV) | 3.34 mV | 3.34 mV |  |  | 43.43 kcps |  |  |  |  | 11.14 | medium | -0.5766 | Log Count Rate ([2]; Fig S8 panels A, C, asymmetric log errors): 1.638; Log Count Rate ([2]; Fig S8 panels B, D): 1.638; Count Rate ([2]; Fig S8 panels B, D, turbidity, derived count rate of scattered light): 43.43; Log10 of Rel to EFC (Feb2021) [3, 19]: -0.5766; Rel-to EFC (Feb-2021) [3, 20]: 0.2651; Rel-to EFC ([3]; Fig S8 panels B, D; infectivity enhancement relative to EF-C): 0.2651; n-fold to virus ([3]; Fig S8 panels B, D; infectivity n-fold relative to virus alone): 11.14
7 | HLHLPLL [CN14] |  |  |  |  |  |  | -9.053 mV | -1 (-1 = if < -4 mV) |  | -9.053 mV | 1 | 200 kcps |  | 133.3 RLU /s | 0.4211 | -1.999 | 0.01002 |  | low | -1.9991 | 
8 | EIEIQINM [TM95 / (TM75)] |  |  |  |  |  |  |  | -1 (-1 = if < -4 mV) | -23.33 mV | -23.33 mV |  |  |  |  |  |  |  |  |  | -1.44 | Zeta Count Rate / kcps ([2]; derived count rate from zeta measurement, mean): 134 kcps; Zeta Count Rate Category ([2]; key not given): 1; infectivity ([3]; infectivity class (low / medium / high) of the peptide in the sequence-pattern analysis, Fig. S22-A4; class limits not given): low; Rel-to EFC (Feb-2021) ([3]; infectivity enhancement relative to EF-C (=1); Feb2021 run): 0.03629; n-fold to virus (Feb2021) ([3]; infectivity n-fold relative to virus only; Feb2021 run): 1.525; Log10 of Rel to EFC (Feb2021) ([3]; log10 of infectivity relative to EF-C; Feb2021 run): -1.44
9 | KAKQAANMWQ [JG6] |  |  |  |  |  |  | -12.9 mV | -1 (-1 = if < -4 mV) |  | -12.9 mV | 1 | 690.5 kcps |  | 343.3 RLU /s | 1.2875 | -1.514 | 0.03064 |  | low | -1.514 | 
